Tested on: B/Hong-Kong/36/05, mutant strain, resistant to zanamivir and oseltamivir
Type: cell-based, influenza B

CC(=O)N[C@H]1[C@H]([C@H](O)[C@H](O)CO)OC(C(=O)O)=C[C@@H]1N=C(N)N [Zanamivir, zanamivir]
IC50: 210000 nM

Reference: US20090081249A1 (priority 2007, published 2009)
